From patent US7964623B2, “Tricyclic benzopyrane compound” (Nissan Chemical Industries Ltd., priority 2004, dated 2011)

Test system: atrium
Assay: Effects on the atrial effective refractory period (S1-S2 extrastimulus technique during bilateral vagal nerve stimulation) in anesthetized beagles
Type: in vivo
Settings: intravenous, from 5 minutes after administration, basic cycle length 300 msec
Experimental: Effects on the Effective Refractory Period
Beagles were anesthetized with pentobarbital sodium and thoracotomy was done along the median line under a respirator and the incision was made on the pericardium to expose the heart. An electrocardiogram (ECG) was recorded using bipolar electrodes attached to the surface of the right atrial free wall, right atrial auricle, and right ventricular free wall. The vagal nerves were stimulated using an electrostimulation device with Nichrome wires inserted into the vagal nerves in the neck bilaterally. The conditions for electrostimulation to the vagal nerves were set such that the RR intervals on ECG were prolonged by about 100 msec compared with those before the stimulation was started.
Atrial and ventricular effective refractory periods were determined by S1-S2 extrastimulus technique at basic cycle length of 300 msec during bilateral vagal nerve stimulation, using programmable electric stimulator. A train of 10 basic stimuli (S1) was followed by a premature extrastimulus (S2) at 2 times diastolic threshold.
For evaluation of drug effects, the atrial and ventricular effective refractory periods were determined before drug administration, then respective compound was administrated intravenously at the dose of 0.3 mg/kg or 0.6 mg/kg, and the atrial and ventricular effective refractory periods were determined from 5 minutes after the administration.
The results were shown as the prolongation time on the atrial and ventricular effective refractory periods, i.e. [effective refractory period after drug administration]−[effective refractory period before drug administration] (msec).

SMILES	Atrial Refractory Period (prolongation time on the atrial effective refractory period) (0.3 mg/kg) [ms]	Atrial Refractory Period (prolongation time on the atrial effective refractory period) (0.6 mg/kg) [ms]
Cc1cc(Cl)nc2cc3c(cc12)OC(C)(C)[C@H](O)[C@H]3NCCc1ccccc1F (relative stereo) [Synthesis Example 24, (3R*,4S*)-7-chloro-4-{[2-(2-fluorophenyl)ethyl]amino}-2,2,9-trimethyl-3,4-dihydro-2H-pyrano[2,3-g]quinolin-3-ol]	23	
CCCC(O)CN[C@H]1c2cc3nc(Cl)cc(C)c3cc2OC(C)(C)[C@@H]1O (relative stereo) [Synthesis Example 58, (3R*,4S*)-7-chloro-4-[(2-hydroxypentyl)amino]-2,2,9-trimethyl-3,4-dihydro-2H-pyrano[2,3-g]quinolin-3-ol]	28	
CC1(C)Oc2cc3nccnc3cc2[C@H](NCCc2ccc(F)cc2)[C@H]1O.Cl (relative stereo) [Synthesis Example 61, (3R*,4S*)-9-{[2-(4-fluorophenyl)ethyl]amino}-7,7-dimethyl-8,9-dihydro-7H-pyrano[2,3-g]quinoxalin-8-ol hydrochloride]	20	
CCCCCN[C@H]1c2cc3nc(Cl)cc(C)c3cc2OC(C)(C)[C@@H]1O.Cl (relative stereo) [Synthesis Example 52, (3R*,4S*)-7-chloro-2,2,9-trimethyl-4-(pentylamino)-3,4-dihydro-2H-pyrano[2,3-g]quinolin-3-ol hydrochloride]	28	
Cc1ccc2cc3c(cc2n1)C(NCCc1ccccc1)C(O)C(C)(C)O3.O=C(O)/C=C\C(=O)O (racemic) [Synthesis Example 4, (±)-trans-2,2,7-Trimethyl-4-[(2-phenylethyl)amino]-3,4-dihydro-2H-pyrano[2,3-g]quinolin-3-ol 3/2 maleate]		30
CC1(C)Oc2cc3nccnc3cc2[C@H](NCCc2ccccc2F)[C@H]1O.Cl (relative stereo) [Synthesis Example 60, (3R*,4S*)-4-{[2-(2-fluorophenyl)ethyl]amino}-2,2-dimethyl-3,4-dihydro-2H-pyrano[2,3-g]quinoxalin-3-ol hydrochloride]	22	
CN1C(=O)COc2cc3c(cc21)OC(C)(C)[C@H](O)[C@H]3NCCc1ccccc1.Cl (relative stereo) [Synthesis Example 73, (7R*,8S*)-7-hydroxy-4,6,6-trimethyl-8-(2-phanylethylamino)-4,6,7,8-tetrahydro-1,5-dioxa-4-aza-anthracene-3-one hydrochloride]	31	
Cc1cc(Cl)nc2cc3c(cc12)OC(C)(C)[C@H](O)[C@H]3NCCC1=CCCC1 (relative stereo) [Synthesis Example 48, (3R*,4S*)-7-chloro-4-[2-(1-cyclopentenylethyl)amino]-2,2,9-trimethyl-3,4-dihydro-2H-pyrano[2,3-g]quinolin-3-ol]	23	
Cc1cc(Cl)nc2cc3c(cc12)OC(C)(C)[C@H](O)[C@H]3NCCc1ccccc1.O=C(O)/C=C\C(=O)O (relative stereo) [Synthesis Example 19, (3R*,4S*)-7-chloro-2,2,9-trimethyl-4-[(2-phenylethyl)amino]-3,4-dihydro-2H-pyrano[2,3-g]quinolin-3-ol 1 maleate]	26	
Cc1cc(CO)nc2cc3c(cc12)OC(C)(C)[C@H](O)[C@H]3NCCc1ccccc1.O=C(O)/C=C\C(=O)O (relative stereo) [Synthesis Example 18, (3R*,4S*)-7-hydroxymethyl-2,2,9-trimethyl-4-[(2-phenylethyl)amino]-3,4-dihydro-2H-pyrano[2,3-g]quinolin-3-ol 1 maleate]	27	
